In patent US12559750B2, “Methods and compositions for treatment of polycystic kidney disease” (Regulus Therapeutics Inc., priority 2021, dated 2026):

Key:
[1] = system: Pcy/DBA mice; assay: Efficacy in Pcy/DBA mouse model of PKD, alone and with tolvaptan; format: in vivo;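 also: dosing began at 6 weeks of age, with endpoints collected 7 days after the last dose and PBS-injected wild-type DBA/2J mice as the normal reference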
Description: The efficacy of RG-NG-1015 was also evaluated in the Pcy/DBA mouse model of PKD alone and in combination with tolvaptan.
As outlined in FIGS. 6A and 6B, five groups of male Pcy/DBA mice (n=13 per treatment group) were treated subcutaneously with PBS or RG-NG-1015 at 25, 5, 1, or 0.2 mg/kg once every two weeks (Q2W). Two groups of male Pcy/DBA mice (n=13 per group) were also treated with RG-NG-1015 at 50 mg/kg once every four weeks (Q4W) or at 12.5 mg/kg once weekly (QW). Another four groups of male Pcy/DBA mice (n=13 per group) were treated subcutaneously with PBS or RG-NG-1015 at 25, 5, or 1 mg/kg Q2W in combination with tolvaptan at 0.3% (w/w chow) ad libitum. A group of male WT-BDA/2J mice received subcutaneous injections of PBS Q2W was included in the study as a normal range reference. Mice were randomized into treatment groups at 5 weeks of age, and treatment started at 6 weeks of age for 17 weeks and were sacrificed 7 days after the final treatment. Kidney weight, body weight, kidney cyst index, urine Ngal-to-Creatinine ratio (Ngal/Cr) were measured.

[2] = molecular target: AMPA glutamate receptor; assay: Patch clamp activity (RGLS4326, off-target follow-up); format: cell-based
Description: To identify potential candidates for off-target pharmacology, a panel of 174 targets including G-protein coupled receptors, transporters, ion channels, nuclear receptors, and cytokine receptors was evaluated in vitro for possible interactions with RGLS4326. […] AMPA receptors are ion channels on excitatory synapses in the CNS that mediate fast excitatory neurotransmission and, therefore, are key components of all neuronal networks. Such an interaction with the AMPA receptor could explain the CNS-mediated findings observed at high doses of RGLS4326 in nonclinical toxicology models.

[3] = system: C57Bl/6J male mice; assay: ICV maximum tolerated dose study, Study 1; format: in vivo, mouse; conditions: 7-day
Description: Compounds (RG-NG-1017, RGLS4326, RG-NG-1001) were evaluated in a pilot maximum tolerated dose (MTD) study (discussed below). RG-NG-1017, RGLS4326 and RG-NG-1001 were initially evaluated at 4 dose-levels each. RG-NG-1017 was included for evaluation as a non-AMPA-R binding compound, as compared to RGLS4326 and RG-NG-1001, which bind AMPA-R. C57Bl/6J male mice (Jackson Laboratories), age 6-7 weeks, were used in this study. Mice were assigned randomly to treatment groups, and the study was blinded. Animals were allowed to acclimate for no less than 5 days and housed on a 12 hr light/dark cycle (lights on 7:00 AM). No more than 4 mice were house in each cage in a ventilated cage rack system. The diet consisted of standard rodent chow and water ad libitum.
The following parameters were used for this study: • 1. Route(s) of administration: intracerebroventricular (ICV) dosing of RG-NG-1017, RG-NG-1001, RGLS4326 • 2. Dose Volume(s): 4 μL • 3. Formulation(s): vehicle, Ca^2+ and Mg^2+ free dPBS • 4. Dose Frequency: Once • 5. Study duration: 8 Days • 6. Number of Groups: 3 • 7. Number of animals per group: (2-4 each group) • 8. Total number of animals: […]
For the ICV administration, mice were anesthetized and positioned for injections. The skin over the skull was incised, and a small hole was made in the skull above the target using a microdrill. The stereotactic coordinates were anteroposterior (AP), −0.4 mm; mediolateral (ML), +/−1.0-1.5 mm; dorsoventral (DV), −3.0 mm from the bregma for injection into both the right and left lateral cerebral ventricles (Hironaka et al, 2015). Animals were injected unilaterally with 4 μl into the right lateral cerebral ventricle. Compounds were injected over 1-2 min, and the needle was left in place for 0.5-1 min prior to withdrawal. The incision was closed with sutures, wound clips, or VetBond.
Following ICV treatment (Day 0), animals were monitored for 7 days in which daily health checks, body weight, and mortality was recorded. On Day 7, brain and kidney were collected and fixed (10% formalin) and stored pending histology.

[4] = RG-NG-1015 0.2 mg/kg SC Q2W, 17 weeks
[5] = RG-NG-1015 1 mg/kg SC Q2W + 0.3% Tolvaptan in chow
[6] = RG-NG-1015 1 mg/kg SC Q2W, 17 weeks
[7] = RG-NG-1015 5 mg/kg SC Q2W + 0.3% Tolvaptan in chow
[8] = RG-NG-1015 5 mg/kg SC Q2W, 17 weeks
[9] = RG-NG-1015 12.5 mg/kg SC QW, 17 weeks
[10] = RG-NG-1015 25 mg/kg SC Q2W + 0.3% Tolvaptan in chow
[11] = RG-NG-1015 25 mg/kg SC Q2W, 17 weeks
[12] = RG-NG-1015 50 mg/kg SC Q4W, 17 weeks

Sequence: ASGSCMAFCFUFUMUSAS [RG-NG-1015]
- Mean Cystic Area [1, 4]: 47.09%
- Mean Cystic Area % Inhibition [1, 4]: 24.8%
- Mean KW/BW [1, 4]: 78 mg/g
- Mean KW/BW % Inhibition [1, 4]: 18.7%
- Mean Urine Ngal/Cr [1, 4]: 18.38 mg/mg
- Mean Urine Ngal/Cr % Inhibition [1, 4]: 13.5%
- Mean Cystic Area [1, 5]: 41.91%
- Mean Cystic Area % Inhibition [1, 5]: 34.3%
- Mean Cystic Area Bliss Analysis [1, 5]: <Additive
- Mean KW/BW [1, 5]: 47.1 mg/g
- Mean KW/BW % Inhibition [1, 5]: 62.0%
- Mean KW/BW Bliss Analysis [1, 5]: Synergistic
- Mean Urine Ngal/Cr [1, 5]: 11.16 mg/mg
- Mean Urine Ngal/Cr % Inhibition [1, 5]: 49.8%
- Mean Urine Ngal/Cr Bliss Analysis [1, 5]: <Additive
- Mean Cystic Area [1, 6]: 50.58%
- Mean Cystic Area % Inhibition [1, 6]: 18.4%
- Mean KW/BW [1, 6]: 82.4 mg/g
- Mean KW/BW % Inhibition [1, 6]: 12.5%
- Mean Urine Ngal/Cr [1, 6]: 15.18 mg/mg
- Mean Urine Ngal/Cr % Inhibition [1, 6]: 29.6%
- Mean Cystic Area [1, 7]: 37.47%
- Mean Cystic Area % Inhibition [1, 7]: 42.5%
- Mean Cystic Area Bliss Analysis [1, 7]: <Additive
- Mean KW/BW [1, 7]: 45.6 mg/g
- Mean KW/BW % Inhibition [1, 7]: 64.1%
- Mean KW/BW Bliss Analysis [1, 7]: Synergistic
- Mean Urine Ngal/Cr [1, 7]: 5.84 mg/mg
- Mean Urine Ngal/Cr % Inhibition [1, 7]: 76.6%
- Mean Urine Ngal/Cr Bliss Analysis [1, 7]: Additive
- Mean Cystic Area [1, 8]: 44.58%
- Mean Cystic Area % Inhibition [1, 8]: 29.4%
- Mean KW/BW [1, 8]: 70 mg/g
- Mean KW/BW % Inhibition [1, 8]: 29.9%
- Mean Urine Ngal/Cr [1, 8]: 14.65 mg/mg
- Mean Urine Ngal/Cr % Inhibition [1, 8]: 32.3%
- Mean Cystic Area [1, 9]: 44.99%
- Mean Cystic Area % Inhibition [1, 9]: 28.7%
- Mean KW/BW [1, 9]: 74.5 mg/g
- Mean KW/BW % Inhibition [1, 9]: 23.6%
- Mean Urine Ngal/Cr [1, 9]: 8.82 mg/mg
- Mean Urine Ngal/Cr % Inhibition [1, 9]: 61.6%
- Mean Cystic Area [1, 10]: 38.61%
- Mean Cystic Area % Inhibition [1, 10]: 40.4%
- Mean Cystic Area Bliss Analysis [1, 10]: <Additive
- Mean KW/BW [1, 10]: 42.2 mg/g
- Mean KW/BW % Inhibition [1, 10]: 68.9%
- Mean KW/BW Bliss Analysis [1, 10]: Synergistic
- Mean Urine Ngal/Cr [1, 10]: 5.04 mg/mg
- Mean Urine Ngal/Cr % Inhibition [1, 10]: 80.6%
- Mean Urine Ngal/Cr Bliss Analysis [1, 10]: Additive
- Mean Cystic Area [1, 11]: 46.46%
- Mean Cystic Area % Inhibition [1, 11]: 26.0%
- Mean KW/BW [1, 11]: 66.9 mg/g
- Mean KW/BW % Inhibition [1, 11]: 34.3%
- Mean Urine Ngal/Cr [1, 11]: 11.36 mg/mg
- Mean Urine Ngal/Cr % Inhibition [1, 11]: 48.8%
- Mean Cystic Area [1, 12]: 47.35%
- Mean Cystic Area % Inhibition [1, 12]: 24.3%
- Mean KW/BW [1, 12]: 67.1 mg/g
- Mean KW/BW % Inhibition [1, 12]: 34.0%
- Mean Urine Ngal/Cr [1, 12]: 9.32 mg/mg
- Mean Urine Ngal/Cr % Inhibition [1, 12]: 59.1%

Sequence: ASGSCMAFCFUFUMUSGS [RGLS4326, reference compound]
- functional IC50 based on patch clamp activity [2]: 0.9 to 1.8 µg/mL
- IC50 ([2]; read-out: functional IC50 based on patch clamp activity): 300 to 600 nM
- Mortality/total number of mice ([3]; single ICV 2.5 μg): 0/3
- Mortality/total number of mice ([3]; single ICV 5 μg): 2/4
- Mortality/total number of mice ([3]; single ICV 10 μg): 3/4
- Mortality/total number of mice ([3]; single ICV 25 μg): 3/3
- Mortality/total number of mice ([3]; single ICV 50 μg): 3/3
- Mortality/total number of mice ([3]; single ICV 100 μg): 2/2
- Mortality/total number of mice ([3]; single ICV 300 μg): 2/2
- Mortality/total number of mice ([3]; single ICV 600 μg): 2/2
